The values below are quoted from earlier work in patent US20100099894A1, “Method for the Synthesis of Cyclic Acetals by the Reactive Extraction of a Polyol in a Concentrated Solution” (priority 2006, published 2010).

Molecules are shown by their SMILES.

The conditions of one data set: aqueous solution, at room temperature; data from Yaw's Handbook.
Take `CC(=O)c1ccccc1` [acetophenone]: the solubility in water is 6842 mg/kg.

For the molecule `O=Cc1ccccc1` [benzaldehyde], the solubility in water is recorded as 6570 mg/kg.

Take `CC(C)CC(=O)CC(C)C` [diisobutyl ketone]: the solubility in water is reported as 2640 mg/kg.

On to `CC(C)C(=O)C(C)C` [diisopropyl ketone], for which the solubility in water is 5700 mg/kg.

Turning to `CCCCCCC=O` [n-heptanal], the solubility in water is reported as 1516 mg/kg.

Regarding `CCCCCCCC=O` [n-octanal], the solubility in water is listed as 370 mg/kg.

With `CCCCC=O` [pentanal], the solubility in water is 11700 mg/kg.

The same data set, now with this note: background description of Solketal.
For the molecule `CC1(C)OCC(CO)O1` (centres unmarked) [Solketal], the miscibility in water entry is “miscible in water”.
